Experimental data reported in patent US20120201902A1, “ANTIMICROBIAL/PRESERVATIVE COMPOSITIONS COMPRISING BOTANICALS” (The Trustees of Columbia University in the City of New York, priority 2009, published 2012).

Key:
S. aureus [1] = assay: In vitro rapid (15 seconds) antibacterial activity (Method A), S. aureus; assay type: cell-based
Method: Method A: 0.8 ml of a test solution was mixed with 0.1 ml of bacterial culture (10^8 cfu/ml) and 0.1 ml of bovine serum and vortexed for 15 seconds. 9 ml of drug neutralizing Fluid (DNF) was then added and serially diluted with DNF and plated on trypticase soy agar (TSA) plates. The plates were incubated for 24-48 hours at 37° C., and colony counts were determined. For a control, a gel base was used alone. The gel base (Base 26) contains 0.2% hydroxymethylpropyl cellulose and 0.2% polyquaternium10, and 0.5% 1,3 propanediol in water.
The present example evaluates rapid (15 seconds) antibacterial activity of various agents, alone and in combination, in an aqueous gel base (Base 26) using S. aureus as the test organism. One method of testing (Method A) uses 0.8 ml of the test solution mixed with 0.1 ml of bacterial culture (10^8 cfu/ml) and 0.1 ml of Bovine serum. The solution is vortexed for 15 seconds. 9.0 ml of drug neutralizing Fluid (DNF) is then added and then serially diluted with DNF and plated on TSA plates. Plates are incubated for 24-48 hours at 37° C. and colony counts were determined. For A control, the base was used alone.

Aspergillus niger = assay: Preservative efficacy in cream (Method 1), Aspergillus niger; assay type: cell-based; settings: for efficacy of solvent added to GSE, lemongrass oil and lactic acid: against A. niger
S. aureus [2] = assay: Synergistic antibacterial activity of benzyl alcohol and citrus fruit extract in proteinaceous media (1 minute); assay type: cell-based; settings: 2.0 % w/w, media 50% TSB and 50% bovine serum
Method: Citrus fruit extract was obtained from PL Thomas (BiosecurF440D organic citrus fruit extract concentrate). The following concentrations of compounds were added to S. aureus culture (10^8 cfu/ml of media containing 50% TSB and 50% bovine serum). After 1 minute, drug neutralizing fluid (DNF) was added and mixed. The samples were then serially diluted with DNF and plated in TSA plate. The plates were incubated for 24-48 hours at 37° C. and colony counts were determined.

C. albicans [3] = assay: Preservative efficacy in cream (Method 1), C. albicans; assay type: cell-based, Candida albicans; settings: for Efficacy (log10 reduction from control growth) C. albicans: Table 67
S. aureus [4] = settings: erythromycin, gentamicin, vancomycin, ciproflaxin, clindamycin, tetracycline; cited from earlier work
C. albicans [5] = assay: Efficacy of antifungal creams in pig skin method (Method D), loosely and tightly adhered organism; assay type: cell-based, Candida albicans; settings: conclusion of Example 31 (Methods C, D, E)
Method: Method D: Evaluation of efficacy in pig skin method (test organism C. albicans). […] At the end of incubation, DNF (drug neutralizing fluid) was added to each piece, mixed to remove the cream and loosely adhered bacteria on the skin. Loosely adhered organism: The fluid containing the cream was removed, serially diluted with DNF and aliquots plated on TSA and incubated for 24-48 hours and colonies were counted. Tightly adhered organism: DNF was added to the rinsed pigskin and sonicated for 20 minutes to remove the tightly adhered bacteria. The fluid after sonication was serially diluted, plated on TSA and, incubate for 24-48 hours and colony counts were determined.

S. aureus [6] = assay: In vitro rapid (15 seconds) efficacy of hand disinfectant soap (Method A with 10^9 organism); assay type: cell-based
Source text: The method of testing is same method as described above as Method A, however using 10^9 organism instead 10^8.

S. aureus [7] = assay: In vitro rapid (15 second) efficacy of surface disinfectants; assay type: cell-based; settings: surfactant base
Method: The following ingredients were added in a surfactant base containing water and alkyl polyglycoside surfactant (Glucopon) (Table 125).
Table 126 provides the dadta for an in vitro rapid (15 second) antibacterial efficacy of surface disinfectants against S. aureus.
The following ingredients were added in a surfactant base containing water and alkyl polyglycoside surfactant (Glucopon) (Table 127).
Table 128 provides the results from an in vitro rapid (15 second) antibacterial efficacy of surface disinfectants against S. aureus.

[8] = cited from earlier work
[9] = Table 106, 3.0 % w/w in Base 26, 15 seconds
[10] = Table 106, 0.5 % w/w in Base 26, 15 seconds
[11] = Table 106, 2.0 % w/w in Base 26, 15 seconds
[12] = Table 107, 2.0 % w/w, 15 seconds
[13] = Table 106, 0.2 % w/w in Base 26, 15 seconds

## OCCCO [1,3 propanediol]
S. aureus [1]; [9]
  log10 reduction: 0.2 log10
Aspergillus niger; 1-2% preservative in hydrophilic cream base, pH 4.5-5.0, tested against Aspergillus niger and C. albicans
  synergistic efficacy of benzyl alcohol and GSE, with and without 1,3 propanediol: enhances the activity

## OCc1ccccc1 [Benzyl alcohol, benzyl alcohol]
S. aureus [1]; [10]
  log10 reduction: 0.13 log10
S. aureus [1]; Table 106, 1.0 % w/w in Base 26, 15 seconds
  log10 reduction: 0.14 log10
S. aureus [1]; [11]
  log10 reduction: 0.18 log10
S. aureus [1]; [9]
  log10 reduction: 0.2 log10
S. aureus [1]; [12]
  log10 reduction: 0.12 log10
S. aureus [1]; benzyl alcohol at 1% and more than 1%, Base 26, 15 seconds
  synergistic activity with citric and lactic acid: synergistic activity
S. aureus [1]; benzyl alcohol at higher concentrations, 15 seconds
  activity along with fruit acid without any botanical extracts: effective
S. aureus [2]
  Antibacterial activity against S. Aureus (10^8 CFU/ml) log10 reduction: 0.1 log10
Aspergillus niger; Example 5, organism not given
  synergistic activity with the combination of GSE, lemongrass oil, and lactic acid: synergistic activity
Aspergillus niger; Table 67, 0.5 % w/w in cream
  Efficacy (log10 reduction from control growth) A. niger: 1.0 log10
Aspergillus niger; Table 67, 1.0 % w/w in cream
  Efficacy (log10 reduction from control growth) A. niger: 1.9 log10
Aspergillus niger
  efficacy of solvent added to GSE, lemongrass oil and lactic acid: higher efficacy
C. albicans [3]; 0.5 % w/w in cream
  Efficacy (log10 reduction from control growth) C. albicans: 1.0 log10
C. albicans [3]; 1.0 % w/w in cream
  Efficacy (log10 reduction from control growth) C. albicans: 2.7 log10
C. albicans [3]; against C. albicans
  efficacy of solvent added to GSE, lemongrass oil and lactic acid: higher efficacy
C. albicans [3]; higher concentrations of benzyl alcohol, against C. albicans
  synergistic activity with Zemea: synergistic activity

## N=C(NCCCCCCNC(=N)NC(=N)Nc1ccc(Cl)cc1)NC(=N)Nc1ccc(Cl)cc1.O=C(O)[C@H](O)[C@@H](O)[C@H](O)[C@H](O)CO.O=C(O)[C@H](O)[C@@H](O)[C@H](O)[C@H](O)CO [Chlorhexidine gluconate]
S. aureus [1]; [10]
  log10 reduction: 2.4 log10

## N=C(NCCCCCCNC(=N)NC(=N)Nc1ccc(Cl)cc1)NC(=N)Nc1ccc(Cl)cc1.O=C(O)[C@H](O)[C@@H](O)[C@H](O)[C@H](O)CO.O=C(O)[C@H](O)[C@@H](O)[C@H](O)[C@H](O)CO [Chlorhexidine gluconte]
S. aureus [1]; [13]
  log10 reduction: 1.43 log10

## O=C(O)CC(O)(CC(=O)O)C(=O)O [Citric acid]
S. aureus [1]; [13]
  log10 reduction: 0.1 log10

## OCc1ccccc1 [Preservative 2]
Aspergillus niger; Table 59, preservative in hydrophilic cream base, pH 4.5-5.0, benzyl alcohol (natural), GSE, Zemea, control growth 1 × 10^4-5 × 10^4
  Efficacy (log10 reduction from control growth) A. niger: 0.98 log10

## CCCCC(CC)COCC(O)CO (centres unmarked) [Sensiva, Octoxyglycerin]
Aspergillus niger
  efficacy of solvent added to GSE, lemongrass oil and lactic acid: not against A. niger
C. albicans [3]; against C. albicans
  efficacy of solvent added to GSE, lemongrass oil and lactic acid: effective against C. albicans

## OCCCO [Zemea ®]
Aspergillus niger; Table 67, 0.5 % w/w in cream
  Efficacy (log10 reduction from control growth) A. niger: 0.85 log10
C. albicans [3]; 0.5 % w/w in cream
  Efficacy (log10 reduction from control growth) C. albicans: 0.5 log10

## CC(C)=CCC/C(C)=C/CC1CCCC1=O (centres unmarked) [apritone]
S. aureus [4]
  susceptibility of S. aureus to antibiotics: enhanced the susceptibility

## O=C1O[C@H]([C@@H](O)CO)C(O)=C1O [ascorbic acid]
S. aureus [1]
  synergistic activity of organic acids with benzyl alcohol: not effective
S. aureus [1]; [12]
  log10 reduction: 0.1 log10

## O=C(O)c1ccccc1 [benzoic acid]
S. aureus [1]
  synergistic activity of organic acids with benzyl alcohol: synergistic activity
S. aureus [1]; [12]
  log10 reduction: 0.1 log10

## CC(C)=CCC[C@](C)(O)C1CC=C(C)CC1 (some centres unmarked) [bisabolol]
S. aureus [4]
  susceptibility of S. aureus to antibiotics: enhanced the susceptibility

## [H]/N=C(\N/C(=N/[H])NCCCCCCNC(=N)NC(=N)Nc1ccc(Cl)cc1)Nc1ccc(Cl)cc1 [chlorhexidine, reference compound]
S. aureus [1]; Base 26, 15 seconds
  synergistic activity with benzyl alcohol and fruit acids: synergistic activity

## CC(C)=CCCC(C)=CCCC(C)=CCO [farnesol]
S. aureus [4]
  susceptibility of S. aureus to antibiotics: enhanced the susceptibility

## CC(O)C(=O)O (centres unmarked) [lactic acid]
S. aureus [1]
  synergistic activity of organic acids with benzyl alcohol: synergistic activity
S. aureus [1]; [13]
  log10 reduction: 0.1 log10
S. aureus [1]; [11]
  log10 reduction: 0.11 log10
S. aureus [1]; [12]
  log10 reduction: 0.11 log10

## Clc1ccc(COC(Cn2ccnc2)c2ccc(Cl)cc2Cl)c(Cl)c1 (centres unmarked) [miconazole]
C. albicans [5]
  antifungal activity with synergistic combination of benzyl alcohol, fruit acid, biguanide and benzalkonium chloride: significantly enhanced

## C=CC(C)(O)CCC=C(C)CCC=C(C)C (centres unmarked) [nerolidol]
S. aureus [4]
  susceptibility of S. aureus to antibiotics: enhanced the susceptibility

## Oc1cc(Cl)ccc1Oc1ccc(Cl)cc1Cl [triclosan]
S. aureus [6]
  synergistic action with BPC (benzyl alcohol, propanediol, citric acid): synergistic action

## (polyiminoimidocarbonyliminoimidocarbonyl-iminohexamethylene)hydro-chloride [Vantocil]
S. aureus [7]
  synergistic activity with benzyl alcohol and fruit acids: synergistic activity
  synergistic activity with benzyl alcohol and lactic acid: synergistic activity

## benzalkonium chloride [reference compound]
S. aureus [6]
  synergistic action with BPC (benzyl alcohol, propanediol, citric acid): synergistic action
S. aureus [1]; Base 26, 15 seconds
  synergistic activity with benzyl alcohol and fruit acids: synergistic activity
S. aureus [1]; Table 106, 0.1 % w/w in Base 26, 15 seconds
  log10 reduction: 2.7 log10

## zinc picolinate
[8]
  water solubility (in words): moderately water soluble
